This note sets out measurements from US20140120184A1, “ARGON-BASED INHALABLE GASEOUS MEDICINAL PRODUCT FOR THE TREATMENT OF NEUROINTOXICATIONS” (Air Liquide Sante (International), priority 2003, published 2014).

Holding throughout (assay type): in vivo, Sprague-Dawley rats
Data set [1] is described as follows: Overall and qualitative evaluation of the gas-treated rats (neurotoxic effect, behaviour) during the sensitization protocol. The conditions noted are these: conclusion from locomotor and righting activity of the gas-exposed rats. The procedure: (§1) To do this, adult male Sprague-Dawley rats that weighed approximately 220 g when they arrived in the laboratory were used. Throughout the study, the animals were placed under standard animalhouse conditions, in groups of 8, so as to avoid the appearance of a stress reaction subsequent to isolation. They had water and food ad libitum.
(§2) For 3 consecutive days (from D1 to D3), 8 groups of animals (8 rats per group) were administered intraperitoneally (i.p.) either D-amphetamine (amph: 1 mg/ml/kg), or a saline solution (saline: 1 ml/kg) for the control animals. […]
(§3) The locomotor activity and the righting activity of the animals were evaluated at D6, after an i.p. injection of a saline solution (1 ml/kg) in order to determine the actual effects of the treatments administered with the various gases and mixtures of gas, and on D7 after an i.p. administration of D-amphetamine (1 mg/ml/kg) in order to evaluate the effects of the gases and mixtures of gas on sensitization to D-amphetamine. […]

The test system of data set [2] is sensitization to D-amphetamine. Description: Stereotypic righting activity on D7 after D-amphetamine challenge (photoelectric cell actimetry) in the D-amphetamine sensitization protocol. The conditions noted are these: rats given D-amphetamine 1 mg/kg i.p. D1-D3, each injection followed by 3 h gas exposure, versus sensitized rats treated with air. The procedure:
as §1, §2, §3
(§4) The results obtained (see FIGS. 1 and 2) are expressed as the mean±the standard error of the mean. […]

For data set [3], the system named is sensitization to D-amphetamine. Kind of data set: Locomotor activity on D7 after D-amphetamine challenge (photoelectric cell actimetry) in the D-amphetamine sensitization protocol. The conditions noted are these: rats given D-amphetamine 1 mg/kg i.p. D1-D3, each injection followed by 3 h gas exposure, versus sensitized rats treated with air. As for the experimental part: as §1, §2, §3, §4

As to argon [argon at 75 vol %], the neurotoxic effect result in data set [1] is listed as “without any neurotoxic effect being observed”. Moreover, the “effect on the righting activity corresponding to the development of the sensitization to D-amphetamine” value in data set [2] was “inhibitory effect”. In data set [3], the “effect on the locomotor hyperactivity inherent to the development of sensitization to D-amphetamine” value is recorded as “total inhibitory effect”.
